Results reported in paper PMC5011342, “A high throughput drug screening assay to identify compounds that promote oligodendrocyte differentiation using acutely dissociated and purified oligodendrocyte precursor cells” (BMC Research Notes, 2016).
pEC50: −log10 of the molar value. Where two headings read alike, the source gives them in different places.

Experiments:
[1] = tested on: acutely dissociated and purified rat OPCs; experiment: Acute OL differentiation assay (MBP expression/cell, immunofluorescent image quantification); assay type: cell-based; details: for hit in OL differentiation assay, MRF-TMC: ● = confirmed hit in this paper's assay
Method in brief: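 This acute differentiation assay used purified rat OPCs from postnatal day 6–7 pups, seeded into PDL/laminin-coated 96-well plates in differentiation medium lacking PDGF and FGF. Compounds were applied in quadruplicate after a 1–2 h preincubation at 37 °C, 10 % CO2, with 0.1 % DMSO negative and 40 ng/ml T3 positive controls in eight wells. After fixation on DIV4, anti-MBP immunofluorescence images yielded MBP expression/cell.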

expanded OPCs = experiment: cells; details: for viability at 0.1 µM / viability at 1 µM / viability at 10 µM: Rattus norvegicus, 72 h
Method in brief: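 Toxicity screen: compounds added at 0.1, 1 and 10 µM to PDGF-AA-expanded OPCs in 96-well plates, 3-day incubation at 37 °C, 10% CO2, then alamarBlue 1:10 for 4 h with fluorescence readout. Results set screening doses of 10/2, 2/0.4 or 0.4/0.08 µM.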

[2] = Rattus norvegicus, 2 uM test compound, relative to quetiapine, sheet "All OLga data", read-out: OL differentiation, 2 uM (% Quet)
[3] = Rattus norvegicus, 10 uM test compound, relative to quetiapine, sheet "All OLga data", read-out: OL differentiation, 10 uM (% Quet)
[4] = read-out: 0.1 µM (% DMSO), alamarBlue viability of expanded OPCs, compound at 0.1 µM, sheet All Tox data
[5] = read-out: 1 µM (% DMSO), alamarBlue viability of expanded OPCs, compound at 1 µM, sheet All Tox data
[6] = read-out: 10 µM (% DMSO), alamarBlue viability of expanded OPCs, compound at 10 µM, sheet All Tox data
[7] = Rattus norvegicus, 0.4 uM test compound, relative to quetiapine, sheet "All OLga data", read-out: OL differentiation, 0.4 uM (% Quet)
[8] = Rattus norvegicus, test compound at 0.4 uM, NCC library screen, sheet "All OLga data", relative to quetiapine, read-out: 0.4 uM (% Quet)
[9] = Rattus norvegicus, test compound at 2 uM, NCC library screen, sheet "All OLga data", relative to quetiapine, read-out: 2 uM (% Quet)
[10] = read-out: 0.1 µM (% DMSO), alamarBlue viability, NCC library compound at 0.1 µM, sheet "All Tox data"
[11] = read-out: 1 µM (% DMSO), alamarBlue viability, NCC library compound at 1 µM, sheet "All Tox data"
[12] = read-out: 10 µM (% DMSO), alamarBlue viability, NCC library compound at 10 µM, sheet "All Tox data"
[13] = alamarBlue viability of expanded OPCs, compound at 0.1 µM, relative to DMSO control
[14] = alamarBlue viability of expanded OPCs, compound at 1 µM, relative to DMSO control
[15] = alamarBlue viability of expanded OPCs, compound at 10 µM, relative to DMSO control
[16] = Rattus norvegicus, test compound at 10 uM, NCC library screen, sheet "All OLga data", relative to quetiapine, read-out: 10 uM (% Quet)

**Q.** With `CNNCc1ccc(C(=O)NC(C)C)cc1` [Procarbazine] as the compound, how does the activation at 2 µM [1, 2] read?
**A.** 0.13%

**Q.** And the activation at 10 µM [1, 3]?
**A.** -31.6%

**Q.** And the viability at 0.1 µM (expanded OPCs; [4])?
**A.** 82.3%

**Q.** What about the viability at 1 µM (expanded OPCs; [5]) of the same compound?
**A.** 87.2%

**Q.** And the viability at 10 µM (expanded OPCs; [6])?
**A.** 96.6%

**Q.** With `CN1CCN(CCCN2c3ccccc3Sc3ccc(Cl)cc32)CC1` [Prochlorperazine, reference compound] as the compound, how does the activation at 0.4 µM [1, 7] read?
**A.** 110%

**Q.** And the activation at 2 µM [1, 2]?
**A.** -12.5%

**Q.** And the “hit in OL differentiation assay, MRF-TMC” value [1]?
**A.** ●

**Q.** What about the viability at 0.1 µM (expanded OPCs; [4]) of the same compound?
**A.** 122%

**Q.** What about the viability at 1 µM (expanded OPCs; [5]) of the same compound?
**A.** 107%

**Q.** And the viability at 10 µM (expanded OPCs; [6])?
**A.** 12.6%

**Q.** Which activation at 0.4 µM [1, 8] does the source give for `OC(CCN1CCCC1)(c1ccccc1)C1CCCCC1` (stereo not drawn) [Procyclidine] here?
**A.** 12%

**Q.** And the activation at 2 µM [1, 9]?
**A.** 11.1%

**Q.** What about the viability at 0.1 µM (expanded OPCs; [10]) of the same compound?
**A.** 86.1%

**Q.** And the viability at 1 µM (expanded OPCs; [11])?
**A.** 70.8%

**Q.** What about the viability at 10 µM (expanded OPCs; [12]) of the same compound?
**A.** 56.9%

**Q.** Which results are given for `CC(=O)[C@H]1CC[C@H]2[C@@H]3CCC4=CC(=O)CC[C@]4(C)[C@H]3CC[C@]12C` [Progesterone]?
**A.** activation at 2 µM [1, 2]: 21.9%; activation at 10 µM [1, 3]: 23.3%; viability at 0.1 µM (expanded OPCs; [4]): 88.2%; viability at 1 µM (expanded OPCs; [5]): 102%; viability at 10 µM (expanded OPCs; [6]): 113%

**Q.** What does the source list for `CC(CN1c2ccccc2Sc2ccccc21)N(C)C` (stereo not drawn) [Promethazine]?
**A.** activation at 0.08 µM ([1]; Rattus norvegicus, test compound at 0.08 uM, NCC library screen, sheet "All OLga data", relative to quetiapine, read-out: 0.08 uM (% Quet)): -26.4%; activation at 0.4 µM [1, 8]: -33.6%; 0.1 µM (% DMSO) (expanded OPCs; [13]): 68.4 % DMSO; 1 µM (% DMSO) (expanded OPCs; [14]): 33.2 % DMSO; 10 µM (% DMSO) (expanded OPCs; [15]): 19.9 % DMSO

**Q.** With `CCCNCC(O)COc1ccccc1C(=O)CCc1ccccc1` (stereo not drawn) [Propafenone] as the compound, how does the activation at 0.4 µM [1, 8] read?
**A.** -15.2%

**Q.** What about the activation at 2 µM [1, 9] of the same compound?
**A.** -3.3%

**Q.** And the “0.1 µM (% DMSO)” value (expanded OPCs; [13])?
**A.** 76.8 % DMSO

**Q.** What about the “1 µM (% DMSO)” value (expanded OPCs; [14]) of the same compound?
**A.** 58.7 % DMSO

**Q.** What about the “10 µM (% DMSO)” value (expanded OPCs; [15]) of the same compound?
**A.** 29.5 % DMSO

**Q.** What does the source list for `CC(C)[N+](C)(CCOC(=O)C1c2ccccc2Oc2ccccc21)C(C)C` [Propantheline]?
**A.** activation at 2 µM [1, 9]: 36.4%; activation at 10 µM [1, 16]: 90.8%; viability at 0.1 µM (expanded OPCs; [10]): 91.7%; viability at 1 µM (expanded OPCs; [11]): 112%; viability at 10 µM (expanded OPCs; [12]): 148%

**Q.** For `CC(C)c1cccc(C(C)C)c1O` [Propofol], which activation at 2 µM ([1]; Rattus norvegicus, read-out: 2 uM (% Quet)) is on record?
**A.** -0.9%

**Q.** What about the activation at 10 µM ([1]; Rattus norvegicus, read-out: 10 uM (% Quet)) of the same compound?
**A.** 0.36%

**Q.** What about the “0.1 µM (% DMSO)” value (expanded OPCs; rat) of the same compound?
**A.** 93.1 % DMSO

**Q.** What about the “1 µM (% DMSO)” value (expanded OPCs; rat) of the same compound?
**A.** 85.9 % DMSO

**Q.** And the “10 µM (% DMSO)” value (expanded OPCs; rat)?
**A.** 87.2 % DMSO

**Q.** How did the activation at 0.4 µM ([1]; Rattus norvegicus, test compound at 0.4 uM, MBP expression relative to quetiapine, NCC library screen, sheet "All OLga data", read-out: 0.4 uM (% Quet)) turn out when `CC(C)NCC(O)COc1cccc2ccccc12` (stereo not drawn) [Propranolol] was run?
**A.** 0.38%

**Q.** And the activation at 2 µM ([1]; Rattus norvegicus, test compound at 2 uM, MBP expression relative to quetiapine, NCC library screen, sheet "All OLga data", read-out: 2 uM (% Quet))?
**A.** -14.5%

**Q.** And the “0.1 µM (% DMSO)” value (expanded OPCs; [13])?
**A.** 95.6 % DMSO

**Q.** And the “1 µM (% DMSO)” value (expanded OPCs; [14])?
**A.** 79.5 % DMSO

**Q.** And the “10 µM (% DMSO)” value (expanded OPCs; [15])?
**A.** 32.7 % DMSO

**Q.** Which activation at 2 µM [1, 9] does the source give for `CCCc1cc(=O)[nH]c(=S)[nH]1` [Propylthiouracil] here?
**A.** -0.9%

**Q.** And the activation at 10 µM [1, 16]?
**A.** 11.7%

**Q.** What about the “0.1 µM (% DMSO)” value (expanded OPCs; [13]) of the same compound?
**A.** 90.3 % DMSO

**Q.** What about the “1 µM (% DMSO)” value (expanded OPCs; [14]) of the same compound?
**A.** 95.9 % DMSO

**Q.** What about the “10 µM (% DMSO)” value (expanded OPCs; [15]) of the same compound?
**A.** 90.8 % DMSO

**Q.** Which results are given for `CCCOc1ccc(C(=O)OCCN(CC)CC)cc1N` [Proxymetacaine, reference compound]?
**A.** activation at 2 µM [1, 9]: 75.8%; activation at 10 µM [1, 16]: 97.5%; pEC50 ([1]; Rattus norvegicus, average EC50 for induction of OL differentiation from independent biological replicates, eight concentrations): 6.00; hit in OL differentiation assay, MRF-TMC [1]: ●; viability at 0.1 µM (expanded OPCs; [10]): 128%; viability at 1 µM (expanded OPCs; [11]): 179%; viability at 10 µM (expanded OPCs; [12]): 163%

**Q.** Which activation at 0.4 µM [1, 7] does the source give for `COc1cc(/C=C/c2ccc(O)cc2)cc(OC)c1` [Pterostilbene] here?
**A.** -5.7%

**Q.** What about the activation at 2 µM [1, 2] of the same compound?
**A.** -7.7%

**Q.** What about the viability at 0.1 µM (expanded OPCs; [4]) of the same compound?
**A.** 101%

**Q.** And the viability at 1 µM (expanded OPCs; [5])?
**A.** 62.5%

**Q.** What about the viability at 10 µM (expanded OPCs; [6]) of the same compound?
**A.** 27.3%

**Q.** How did the activation at 2 µM [1, 9] turn out when `NC(=O)c1cnccn1` [Pyrazinamide] was run?
**A.** -8.1%

**Q.** What about the activation at 10 µM [1, 16] of the same compound?
**A.** -1.1%

**Q.** And the “0.1 µM (% DMSO)” value (expanded OPCs; [13])?
**A.** 89.2 % DMSO

**Q.** What about the “1 µM (% DMSO)” value (expanded OPCs; [14]) of the same compound?
**A.** 94.5 % DMSO

**Q.** And the “10 µM (% DMSO)” value (expanded OPCs; [15])?
**A.** 87.7 % DMSO

**Q.** What does the source list for `CN(C)C(=O)Oc1ccc[n+](C)c1` [Pyridostigmine Bromide]?
**A.** activation at 2 µM [1, 9]: -0.46%; activation at 10 µM [1, 16]: 21.5%; 0.1 µM (% DMSO) (expanded OPCs; [13]): 92.2 % DMSO; 1 µM (% DMSO) (expanded OPCs; [14]): 86.7 % DMSO; 10 µM (% DMSO) (expanded OPCs; [15]): 84.4 % DMSO

**Q.** Which activation at 2 µM [1, 9] does the source give for `CCc1nc(N)nc(N)c1-c1ccc(Cl)cc1` [Pyrimethamine] here?
**A.** -12.3%

**Q.** What about the activation at 10 µM [1, 16] of the same compound?
**A.** -35.3%

**Q.** What about the viability at 0.1 µM (expanded OPCs; [10]) of the same compound?
**A.** 100%

**Q.** What about the viability at 1 µM (expanded OPCs; [11]) of the same compound?
**A.** 99.6%

**Q.** And the viability at 10 µM (expanded OPCs; [12])?
**A.** 66.5%
